Source: patent US4847286A, “Cromoglycic acid derivatives, method of production thereof and pharmaceutical composition” (priority 1985, dated 1989)
Structures can show the parent of a compound that is named as a salt.

Assays:
[1] = Acute toxicity test, oral route; details: mouse, in vivo, aqueous solution, groups of three ICR-strain male mice
Procedure: The cromoglycic acid derivatives produced in Examples 1, 4, 7, 11 and 12 were administered, each in the form of an aqueous solution, to groups of three ICR-strain male mice by the oral route.

[2] = rabbit, in vivo, po, 5 mg/kg, 360 min
[3] = background statement; cited from earlier work
in vivo = details: rabbit, po, 5 mg/kg

dose excreted at 6 h (in vivo) [%]	Compound	LD50 [1] [mg/kg]	0-6 Hr urinary recovery [2] [%]	absorption in the digestive tract [3]
	CCOCCOC(=O)c1cc(=O)c2c(OCC(COc3cccc4oc(C(=O)OCCOCC)cc(=O)c34)OC(=O)[C@@H](N)CCCCN)cccc2o1 [Example 11, di(2-ethoxyethyl) L-lysylcromoglycate dihydrochloride]	> 1000	25.4	
	CCOC(=O)c1cc(=O)c2c(OCC(COc3cccc4oc(C(=O)OCC)cc(=O)c34)OC(=O)CNC(=O)[C@H](C)N)cccc2o1 [Example 7, diethyl N-(L-alanyl)glycylcromoglycate hydrochloride]	> 1000	21.4	
	CCOC(=O)c1cc(=O)c2c(OCC(COc3cccc4oc(C(=O)OCC)cc(=O)c34)OC(=O)[C@H](C)N)cccc2o1 [Example 4, diethyl L-alanylcromoglycate hydrochloride]	> 1000	20.2	
	CCOCCOC(=O)c1cc(=O)c2c(OCC(COc3cccc4oc(C(=O)OCCOCC)cc(=O)c34)OC(=O)[C@H](C)N)cccc2o1 [Example 12, di(2-ethoxyethyl) L-alanylcromoglycate hydrochloride]	> 1000	21.8	
	CCOC(=O)c1cc(=O)c2c(OCC(COc3cccc4oc(C(=O)OCC)cc(=O)c34)OC(=O)[C@@H](N)CCCCN)cccc2o1 [Example 1, diethyl L-lysylcromoglycate dihydrochloride]	> 1000	32.6	
3.5	O=C(O)c1cc(=O)c2c(OCC(O)COc3cccc4oc(C(=O)O)cc(=O)c34)cccc2o1 [Cromoglycic acid]			cannot be absorbed in the digestive tract
